The text below walks through data of PMC6518372, “An enzymatically stable GIP/xenin hybrid peptide restores GIP sensitivity, enhances beta cell function and improves glucose homeostasis in high-fat-fed mice” (Diabetologia, 2016).

This assay concerns high-fat-fed mice. The assay can be described thus: Insulin sensitivity test after 21 day treatment. The following applies: insulin 15 U/kg i.p., non-fasted high-fat-fed mice after 21 days at 25 nmol/kg twice daily. It is filed as in vivo, mouse. The protocol:
Twice-daily (09:30 and 17:30 hours) i.p. injections of saline vehicle, (DAla^2)GIP or (DAla^2)GIP/xenin-8-Gln hybrid (both at 25 nmol/kg) were administered for 21 days in high-fat-fed mice. Energy intake and body weight were monitored daily and non-fasting blood glucose and plasma insulin concentrations were assessed at 3 day intervals. On day 21, a non-fasted 24 h glucose profile was conducted. At the end of the treatment period, i.p. glucose tolerance (18 mmol/kg), biological response to GIP (18 mmol/kg glucose in combination with native GIP [25 nmol/kg], i.p.) and insulin sensitivity (15 U/kg; i.p.) tests were performed. Terminal analysis included measurement of total body fat and lean mass by dual-energy X-ray absorptiometry (DEXA) scanning (Piximus Densitometer; Inside Outside Sales, Fitchburg, WI, USA) and extraction of pancreatic tissue for analysis as detailed below.
Fig. 4 Effects of twice-daily administration of (DAla^2)GIP and (DAla^2)GIP/xenin-8-Gln on insulin sensitivity and pancreatic insulin content in high-fat-fed mice. […] Blood glucose was measured (a), area above the curve (AAC) was calculated using identical baseline subtraction for each group (b) and pancreatic insulin content was measured by RIA (c). […]

Consider `CC[C@H](C)[C@H](NC(=O)[C@H](CO)NC(=O)[C@H](Cc1ccc(O)cc1)NC(=O)[C@H](CC(=O)O)NC(=O)[C@H](CO)NC(=O)[C@@H](NC(=O)[C@H](Cc1ccccc1)NC(=O)[C@@H](NC(=O)CNC(=O)[C@H](CCC(=O)O)NC(=O)[C@@H](C)NC(=O)[C@@H](N)Cc1ccc(O)cc1)[C@@H](C)O)[C@@H](C)CC)C(=O)N[C@@H](C)C(=O)N[C@@H](CCSC)C(=O)N[C@@H](CC(=O)O)C(=O)N[C@@H](CCCCN)C(=O)N[C@H](C(=O)N[C@@H](Cc1c[nH]cn1)C(=O)N[C@@H](CCC(N)=O)C(=O)N[C@@H](CCC(N)=O)C(=O)N[C@@H](CC(=O)O)C(=O)N[C@@H](Cc1ccccc1)C(=O)N[C@H](C(=O)N[C@@H](CC(N)=O)C(=O)N[C@@H](Cc1c[nH]c2ccccc12)C(=O)N[C@@H](CC(C)C)C(=O)N[C@@H](CC(C)C)C(=O)N[C@@H](C)C(=O)N[C@@H](CCC(N)=O)C(=O)N[C@@H](CCCCN)C(=O)NCC(=O)N[C@@H](CCCCN)C(=O)N[C@@H](CCCCN)C(=O)N[C@@H](CC(N)=O)C(=O)N[C@@H](CC(=O)O)C(=O)N[C@@H](Cc1c[nH]c2ccccc12)C(=O)N[C@@H](CCCCN)C(=O)N[C@@H](Cc1c[nH]cn1)C(=O)N[C@@H](CC(N)=O)C(=O)N[C@H](C(=O)N[C@H](C(=O)N[C@@H](CCC(N)=O)C(=O)O)[C@@H](C)O)[C@@H](C)CC)C(C)C)[C@@H](C)CC` [(DAla^2)GIP], for which the “Individual blood glucose levels following exogenous insulin” value was “reduced, albeit non-significantly”. The “Overall glucose-lowering effect of insulin (area above the curve)” value (vs control high-fat mice) is reported as “significantly (p < 0.001) improved”.
